Columns and labels:
[1] = molecular target: ternary complex between BCL-XL and CRBN-DDB1 (Homo sapiens, UniProt Q07817+Q96SW2); experiment: Compound-induced formation of ternary complex between BCL-XL and CRBN-DDB1 by AlphaLISA; format: biochemical; design: key: the number of + indicates the intensity of AlphaLISA peak signal; ++: the number of + indicates the intensity of AlphaLISA peak signal; +++: the number of + indicates the intensity of AlphaLISA peak signal; ++++: the number of + indicates the intensity of AlphaLISA peak signal; +++++: the number of + indicates the intensity of AlphaLISA peak signal; settings: peak signal; 60 nM Strep-BCL-XL and 60 nM His-CRBN/DDB1
ternary complex between BCL-XL and CRBN-DDB1, sequence (Q07817 whole entry): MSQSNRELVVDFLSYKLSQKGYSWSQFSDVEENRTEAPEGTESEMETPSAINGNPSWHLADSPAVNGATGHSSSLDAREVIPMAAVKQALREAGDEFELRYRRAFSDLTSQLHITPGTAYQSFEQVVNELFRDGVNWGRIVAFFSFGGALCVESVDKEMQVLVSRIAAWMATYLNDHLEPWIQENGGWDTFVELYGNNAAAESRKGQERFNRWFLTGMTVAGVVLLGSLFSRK
ternary complex between BCL-XL and CRBN-DDB1, sequence (Q96SW2 whole entry): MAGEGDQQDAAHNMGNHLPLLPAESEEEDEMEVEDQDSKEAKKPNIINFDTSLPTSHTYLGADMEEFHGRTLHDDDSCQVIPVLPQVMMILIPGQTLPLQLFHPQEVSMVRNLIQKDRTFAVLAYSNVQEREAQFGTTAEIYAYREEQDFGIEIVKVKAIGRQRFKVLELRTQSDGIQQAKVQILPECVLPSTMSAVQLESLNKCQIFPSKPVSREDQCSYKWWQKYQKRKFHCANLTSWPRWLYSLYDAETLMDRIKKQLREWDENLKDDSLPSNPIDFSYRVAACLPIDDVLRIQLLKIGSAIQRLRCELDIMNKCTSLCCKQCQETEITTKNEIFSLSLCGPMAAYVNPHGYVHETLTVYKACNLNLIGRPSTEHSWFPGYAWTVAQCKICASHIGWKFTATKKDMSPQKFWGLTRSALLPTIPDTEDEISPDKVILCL
ternary complex between BCL-XL and CRBN-DDB1, sequence (Q16531 whole entry partner): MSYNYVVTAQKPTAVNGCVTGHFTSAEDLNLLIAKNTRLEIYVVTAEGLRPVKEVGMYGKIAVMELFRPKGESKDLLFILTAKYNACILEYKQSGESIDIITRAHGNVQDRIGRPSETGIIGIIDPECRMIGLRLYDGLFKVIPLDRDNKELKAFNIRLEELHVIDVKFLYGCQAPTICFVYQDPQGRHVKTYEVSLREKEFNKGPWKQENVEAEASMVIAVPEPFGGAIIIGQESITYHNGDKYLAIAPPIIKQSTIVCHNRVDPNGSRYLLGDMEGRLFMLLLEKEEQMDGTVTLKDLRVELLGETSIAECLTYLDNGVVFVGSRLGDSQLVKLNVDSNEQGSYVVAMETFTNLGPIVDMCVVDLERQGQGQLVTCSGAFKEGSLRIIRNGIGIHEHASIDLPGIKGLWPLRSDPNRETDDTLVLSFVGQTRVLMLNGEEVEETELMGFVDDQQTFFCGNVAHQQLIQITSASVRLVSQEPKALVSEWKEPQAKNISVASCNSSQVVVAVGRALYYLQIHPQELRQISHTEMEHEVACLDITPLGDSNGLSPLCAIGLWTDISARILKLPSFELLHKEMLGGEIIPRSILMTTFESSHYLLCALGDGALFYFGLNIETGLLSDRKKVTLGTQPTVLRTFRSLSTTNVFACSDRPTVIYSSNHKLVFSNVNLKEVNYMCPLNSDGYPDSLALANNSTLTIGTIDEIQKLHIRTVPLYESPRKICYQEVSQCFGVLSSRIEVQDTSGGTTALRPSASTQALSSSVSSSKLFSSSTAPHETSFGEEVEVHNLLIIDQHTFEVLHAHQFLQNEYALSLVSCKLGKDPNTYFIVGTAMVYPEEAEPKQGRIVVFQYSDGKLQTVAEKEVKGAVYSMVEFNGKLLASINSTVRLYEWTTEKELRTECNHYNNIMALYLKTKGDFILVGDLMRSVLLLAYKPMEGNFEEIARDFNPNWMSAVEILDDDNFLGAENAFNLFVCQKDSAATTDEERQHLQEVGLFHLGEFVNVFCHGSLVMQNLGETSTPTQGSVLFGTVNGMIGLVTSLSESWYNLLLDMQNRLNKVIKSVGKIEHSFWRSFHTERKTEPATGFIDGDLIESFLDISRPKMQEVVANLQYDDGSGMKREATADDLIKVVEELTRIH
Description: Experimental Example 4, Detection of Compound-Induced Formation of Ternary Complex Between BCL-XL and CRBN-DDB1 by AlphaLISA Method
Na2HPO4(Sigma), NaH2PO4(Sigma), sodium chloride (Sigma), Tween-20 (Sigma), AlphaLISA®Nikel Chelate Acceptor beads (PerkinElmer), Strep-Tactin® Alpha Donor beads (PerkinElmer), Assay plate (Corning), Strep-BCl-XL (HitGen), His-CRBN/DDB1 (HitGen).
DMSO was used to dissolve the dry powder of the test compound to obtain a 10.00 mM solution. The instrument ECHO was used to perform gradient dilution of the compound, which was then added to a 384-well reaction plate (Corning, Cat #3824), so that the final concentration of DMSO in the entire reaction system (10.0 μL) was less than 1%, and the same amount of DMSO was added and used as a control.
Strep-BCl-XL and His-CRBN/DDB1 proteins were dissolved in buffer (10 mM NaH2PO4, 40 mM Na2HPO4, 150 mM sodium chloride, 0.03% Tween20, pH=7.4) to obtain a protein mixture of 60 nM Strep-BCL-XL and 60 nM His-CRBN/DDB1, the protein mixture (5ul/well) was added to the 384-well plate in which the compound had been added, and incubated at room temperature for 30 minutes, then 5 μl of a detection mixture with 50 μg/ml AlphaLISA®Nikel Chelate Acceptor beads and 50 μg/ml Strep-Tactin® Alpha Donor beads was added, and incubated at room temperature for 2 hours; and then a microplate reader was used to detect AlphaLISA signal.
Fifth order polynomial or Sixth order polynomial in Polynomial of Graphpad 6.0 was used for data fitting.

MOLT-4 cells = experiment: Inhibitory activity on MOLT4 cell proliferation by Cell Titer-Glo method; format: cell-based; settings: Homo sapiens, 72 hours incubation, read-out: IC50 concentration for inhibiting MOLT-4 cells
Description: Experimental Example 5, Evaluation Experiment of Inhibitory Activity of Compound on MOLT4 Cell Proliferation by Cell Titer-Glo Method
RPMI medium modified (Hyclone), FBS (Corning), Dimethyl Sulfoxide, P/S, CellTiter-Gbo Luminescent Cell Viability Assay (Promega), MOLT-4 cell (ATCC).
MOLT-4 cells were cultured in monolayer in vitro in an incubator containing 5% CO2 air at 37° C. The culture medium was RPMI 1640 with 10% FBS and 1% P/S. 15 μL of MOLT4 cells, containing 5×10^4 cells per ml, was inoculated to a 384-well plate (Corning, 3707), 750 cells/well, and incubated at 37° C. and 5% CO2 for 30 minutes. Then the compound that had been diluted in advance was added, with a total of 9 concentration points, and 2 parallel repetitions for each concentration point. The cell growing group without adding the compound was used as a negative control (maximum signal control), and the culture medium group was used as a blank control (minimum signal control). At the same time, it was ensured that the final DMSO content in each reaction well was 0.1%. The compound and the cells were incubated in a cell culture incubator at 37° C., 5% CO2 for 3 days (72 hours).
The 384-well plate was taken out from the cell culture incubator and allowed to stand at room temperature, equilibrated for 20 to 30 minutes, and then 25 μl of Cell Titer-Glo detection reagent was added to each reaction well, lysed on a shaker for 2 minutes, incubated for 10 minutes, and BMG PHERAStar (Luminescence) was used for reading.
The inhibition rate was calculated based on the luminescence signals: the average value of the negative control (maximum signal control) and the blank control (minimum signal control) was first calculated, then the inhibition rates of the compound at different concentrations for the cells were calculated as follows:
The IC50 of the compound to inhibit cell activity was calculated by fitting with GraphPad Prism 6 using log(inhibitor) vs. response−Variable slope mode. The fitting equation was: Y=Bottom+(Top−Bottom)/(1+10^((LogIC50−X)*HillSlope)), wherein Y represented the inhibition rate and X represented the known compound concentration after Log.

AlphaLISA signal (PROTAC ternary complex signal intensity) [1]	IC50 (MOLT-4 cells) [µM]	Compound
+++++	100 to 200	C=Cc1cc(-c2nc3c(c(NC)n2)CCN(C(=O)c2ccc(COc4ccc(C#CCN5CCN(CCCCCNc6cccc7c6C(=O)N(C6CCC(=O)NC6=O)C7=O)CC5)cc4)cc2)C3)cnc1C=C (centres unmarked) [Compound C2-3]
++++	50 to 100	C=Cc1cc(-c2nc3c(c(NC)n2)CCN(C(=O)c2ccc(COc4ccc(C#CCN5CCN(CCCCCOc6cccc7c6C(=O)N(C6CCC(=O)NC6=O)C7=O)CC5)cc4)cc2)C3)cnc1C=C (centres unmarked) [Compound C3-16]
+	50 to 100	C=Cc1cc(-c2nc3c(c(NC)n2)CCN(C(=O)c2ccc(/C=C/c4ccc(C#CCN5CCN(CCCCCOc6cccc7c6C(=O)N(C6CCC(=O)NC6=O)C7=O)CC5)cc4)cc2)C3)cnc1C=C (centres unmarked) [Compound C3-6]
+	100 to 200	C=Cc1cc(-c2ncc3c(n2)CN(C(=O)c2ccc(/C=C/c4ccc(C#CCN5CCN(CCCCCOc6cccc7c6C(=O)N(C6CCC(=O)NC6=O)C7=O)CC5)cc4)cc2)CC3)cnc1C=C (centres unmarked) [Compound C3-2]
++	50 to 100	CNc1nc(-c2cnc3ccccc3c2)nc2c1CCN(C(=O)c1ccc(COc3ccc(C#CCN4CCN(C(=O)CCCn5cc(COCCOCCNc6cccc7c6C(=O)N(C6CCC(=O)NC6=O)C7=O)nn5)CC4)cc3)cc1)C2 (centres unmarked) [A]
+++		C=Cc1cc(-c2nc3c(c(NC)n2)CCN(C(=O)c2ccc(COc4ccc(C#CCN5CCN(CCCCCCCCNc6cccc7c6C(=O)N(C6CCC(=O)NC6=O)C7=O)CC5)cc4)cc2)C3)cnc1C=C (centres unmarked) [Compound C2-5]
++	50 to 100	C=Cc1cc(-c2ncc3c(n2)CN(C(=O)c2ccc(/C=C/c4ccc(C#CCN5CCN(C6CCN(CC#Cc7cccc8c7CN(C7CCC(=O)NC7=O)C8=O)CC6)CC5)cc4)cc2)CC3)cnc1C=C (centres unmarked) [Compound E1-2]
+		CNc1nc(-c2cnc3ccccc3c2)nc2c1CCN(C(=O)c1ccc(/C=C/c3ccc(C#CCN4CCN(C(=O)CCCCC(=O)N[C@H](C(=O)N5C[C@H](O)C[C@H]5C(=O)NCc5ccc(-c6scnc6C)cc5)C(C)(C)C)CC4)cc3)cc1)C2 [Compound G2-4]
+		CNc1nc(-c2cnc3ccccc3c2)nc2c1CCN(C(=O)c1ccc(/C=C/c3ccc(C#CCN4CCN(CCCCC(=O)N[C@H](C(=O)N5C[C@H](O)C[C@H]5C(=O)N[C@@H](C)c5ccc(-c6scnc6C)cc5)C(C)(C)C)CC4)cc3)cc1)C2 [Compound G3-1]
+		CNc1nc(-c2cnc3ccccc3c2)nc2c1CCN(C(=O)c1ccc(/C=C/c3ccc(C#CCN4CCN(CCCCC(=O)N[C@H](C(=O)N5C[C@H](O)C[C@H]5C(=O)NCc5ccc(-c6scnc6C)cc5)C(C)(C)C)CC4)cc3)cc1)C2 [Compound G1-4]
++	100 to 200	C/C=c1/cc(-c2nc3c(c(NC)n2)CCN(C(=O)c2ccc(/C=C/c4ccc(C#CCN5CCN(CCCCCOc6cccc7c6CN(C6CCC(=O)NC6=O)C7=O)CC5)cc4)cc2)C3)cn/c1=C/C (centres unmarked) [Compound C3-5]
++		C=Cc1cc(-c2ncc3c(n2)CN(C(=O)c2ccc(COc4ccc(C#CCN5CCN(CCCCCOc6cccc7c6C(=O)N(C6CCC(=O)NC6=O)C7=O)CC5)cc4)cn2)CC3)cnc1C=C (centres unmarked) [Compound C3-10]
+		CNc1nc(-c2cnc3ccccc3c2)nc2c1CCN(C(=O)c1ccc(/C=C/c3ccc(C#CCN4CCN(C(=O)CCCCCCCCC(=O)N[C@H](C(=O)N5C[C@H](O)C[C@H]5C(=O)N[C@@H](C)c5ccc(-c6scnc6C)cc5)C(C)(C)C)CC4)cc3)cc1)C2 [Compound G2-7]
+		C/C=c1/cc(-c2nc3c(c(NC)n2)CCN(C(=O)c2ccc(COc4ccc(C#CCN(C)CCCCCOc5cccc6c5C(=O)N(C5CCC(=O)NC5=O)C6=O)cc4)cc2)C3)cn/c1=C/C (centres unmarked) [Compound B3]
+	100 to 200	O=C1CCC(N2Cc3c(C#CCCCN4CCN(CC#Cc5ccc(/C=C/c6ccc(C(=O)N7CCc8cnc(-c9cnc%10ccccc%10c9)nc8C7)cc6)cc5)CC4)cccc3C2=O)C(=O)N1 (centres unmarked) [Compound D2-4]
++	> 200	CNc1nc(-c2cnc3ccccc3c2)nc2c1CCN(C(=O)c1ccc(/C=C/c3ccc(C#CCN4CCN(C(=O)CC(=O)N[C@H](C(=O)N5C[C@H](O)C[C@H]5C(=O)N[C@@H](C)c5ccc(-c6scnc6C)cc5)C(C)(C)C)CC4)cc3)cc1)C2 [Compound G2-1]
+++		C=Cc1cc(-c2nc3c(c(NC)n2)CCN(C(=O)c2ccc(COc4ccc(C#CCN5CCN(CCCCCCCCOc6cccc7c6C(=O)N(C6CCC(=O)NC6=O)C7=O)CC5)cc4)cc2)C3)cnc1C=C (centres unmarked) [Compound C3-18]
+		CNc1nc(-c2cnc3ccccc3c2)nc2c1CCN(C(=O)c1ccc(/C=C/c3ccc(C#CCN4CCN(C(=O)CCCC(=O)N[C@H](C(=O)N5C[C@H](O)C[C@H]5C(=O)NCc5ccc(-c6scnc6C)cc5)C(C)(C)C)CC4)cc3)cc1)C2 [Compound G2-3]
++	> 200	CNc1nc(-c2cnc3ccccc3c2)nc2c1CCN(C(=O)c1ccc(/C=C/c3ccc(C#CCN4CCN(CCCCCC(=O)N[C@H](C(=O)N5C[C@H](O)C[C@H]5C(=O)NCc5ccc(-c6scnc6C)cc5)C(C)(C)C)CC4)cc3)cc1)C2 [Compound G1-5]
+	100 to 200	C/C=c1/cc(-c2ncc3c(n2)CN(C(=O)c2ccc(/C=C/c4ccc(C#CCN5CCN(CCCCCOc6cccc7c6CN(C6CCC(=O)NC6=O)C7=O)CC5)cc4)cc2)CC3)cn/c1=C/C (centres unmarked) [Compound C3-4]
++	50 to 100	O=C1CCC(N2Cc3c(OC4CC5(C4)CN(C4CCN(CC#Cc6ccc(/C=C/c7ccc(C(=O)N8CCc9cnc(-c%10cnc%11ccccc%11c%10)nc9C8)cc7)cc6)CC4)C5)cccc3C2=O)C(=O)N1 (centres unmarked) [Compound F3B-2]
++++	50 to 100	C=Cc1cc(-c2nc3c(c(NC)n2)CCN(C(=O)c2ccc(COc4ccc(C#CCN5CCN(CCCCCCOc6cccc7c6C(=O)N(C6CCC(=O)NC6=O)C7=O)CC5)cc4)cc2)C3)cnc1C=C (centres unmarked) [Compound C3-17]
+		CNc1nc(-c2cnc3ccccc3c2)nc2c1CCN(C(=O)c1ccc(/C=C/c3ccc(C#CCN4CCN(C(=O)CCCCCCC(=O)N[C@H](C(=O)N5C[C@H](O)C[C@H]5C(=O)NCc5ccc(-c6scnc6C)cc5)C(C)(C)C)CC4)cc3)cc1)C2 [Compound G2-6]
+		C=Cc1cc(-c2nc3c(c(NC)n2)CCN(C(=O)c2ccc(COc4ccc(C#CCN5CCN(CCCOc6cccc7c6C(=O)N(C6CCC(=O)NC6=O)C7=O)CC5)cc4)cc2)C3)cnc1C=C (centres unmarked) [Compound C3-14]
+		C=Cc1cc(-c2nc3c(c(NC)n2)CCN(C(=O)c2ccc(COc4ccc(C#CCN(C)CCCCOc5cccc6c5C(=O)N(C5CCC(=O)NC5=O)C6=O)cc4)cc2)C3)cnc1C=C (centres unmarked) [Compound B2]

— patent US20250136593A1, “DEGRADATION AGENT AND USE THEREOF” (HITGEN INC., priority 2021, published 2025)
